According to PubChem BioAssay AID1259407 (Chemical Carcinogenesis Research Information System (CCRIS), 2018):
Active and inactive are the calls of the source. The rule behind the calls is not given here.

Tested on: CCRIS mutagenicity, Ames/micronucleus/aberration tests
Experiment: CCRIS mutagenicity studies
[1] = Test System: AMES SALMONELLA TYPHIMURIUM, Strain/Indicator: TA98, Metabolic Activation: NONE, Method: STANDARD PLATE

## CNNCc1ccc(C(=O)NC(C)C)cc1
Test System: AMES SALMONELLA TYPHIMURIUM, Strain/Indicator: TA97, Metabolic Activation: HAMSTER, LIVER, S-9, AROCLOR 1254 (10 OR 30%), Method: PREINCUBATION
  mutagenic call: inactive; negative
Test System: AMES SALMONELLA TYPHIMURIUM, Strain/Indicator: TA97, Metabolic Activation: NONE, Method: PREINCUBATION
  mutagenic call: inactive; negative
Test System: AMES SALMONELLA TYPHIMURIUM, Strain/Indicator: TA97, Metabolic Activation: RAT, LIVER, S-9, AROCLOR 1254 (10 OR 30%), Method: PREINCUBATION
  mutagenic call: inactive; negative
Test System: AMES SALMONELLA TYPHIMURIUM, Strain/Indicator: TA98, Metabolic Activation: HAMSTER, LIVER, S-9, AROCLOR 1254 (10 OR 30%), Method: PREINCUBATION
  mutagenic call: inactive; negative
Test System: AMES SALMONELLA TYPHIMURIUM, Strain/Indicator: TA98, Metabolic Activation: NONE, Method: PREINCUBATION
  mutagenic call: inactive; negative
[1]
  mutagenic call: inactive; negative
Test System: AMES SALMONELLA TYPHIMURIUM, Strain/Indicator: TA98, Metabolic Activation: RAT, LIVER, S-9, AROCLOR 1254 (10 OR 30%), Method: PREINCUBATION
  mutagenic call: inactive; negative
Test System: AMES SALMONELLA TYPHIMURIUM, Strain/Indicator: TA98, Metabolic Activation: S-9, Method: PREINCUBATION
  mutagenic call: inactive; negative
Test System: AMES SALMONELLA TYPHIMURIUM, Strain/Indicator: TA98, Metabolic Activation: S-9, Method: STANDARD PLATE
  mutagenic call: inactive; negative
Test System: AMES SALMONELLA TYPHIMURIUM, Strain/Indicator: TA100, Metabolic Activation: HAMSTER, LIVER, S-9, AROCLOR 1254 (10 OR 30%), Method: PREINCUBATION
  mutagenic call: inactive; negative
Test System: AMES SALMONELLA TYPHIMURIUM, Strain/Indicator: TA100, Metabolic Activation: NONE, Method: PREINCUBATION
  mutagenic call: inactive; negative
Test System: AMES SALMONELLA TYPHIMURIUM, Strain/Indicator: TA100, Metabolic Activation: NONE, Method: STANDARD PLATE
  mutagenic call: inactive; negative
Test System: AMES SALMONELLA TYPHIMURIUM, Strain/Indicator: TA100, Metabolic Activation: RAT, LIVER, S-9, AROCLOR 1254 (10 OR 30%), Method: PREINCUBATION
  mutagenic call: inactive; negative
Test System: AMES SALMONELLA TYPHIMURIUM, Strain/Indicator: TA100, Metabolic Activation: RAT, LIVER, S-9, PYRAZOLE, Method: PREINCUBATION
  mutagenic call: inactive; negative
Test System: AMES SALMONELLA TYPHIMURIUM, Strain/Indicator: TA100, Metabolic Activation: S-9, Method: PREINCUBATION
  mutagenic call: inactive; negative
Test System: AMES SALMONELLA TYPHIMURIUM, Strain/Indicator: TA100, Metabolic Activation: S-9, Method: STANDARD PLATE
  mutagenic call: inactive; negative
Test System: AMES SALMONELLA TYPHIMURIUM, Strain/Indicator: TA1530 (PKM101), Metabolic Activation: RAT, LIVER, S-9, ETHANOL, Method: PREINCUBATION
  mutagenic call: inactive; negative
Test System: AMES SALMONELLA TYPHIMURIUM, Strain/Indicator: TA1530 (PKM101), Metabolic Activation: RAT, LIVER, S-9, PYRAZOLE, Method: PREINCUBATION
  mutagenic call: inactive; negative
Test System: AMES SALMONELLA TYPHIMURIUM, Strain/Indicator: TA1535, Metabolic Activation: HAMSTER, LIVER, S-9, AROCLOR 1254 (10 OR 30%), Method: PREINCUBATION
  mutagenic call: inactive; negative
Test System: AMES SALMONELLA TYPHIMURIUM, Strain/Indicator: TA1535, Metabolic Activation: NONE, Method: PREINCUBATION
  mutagenic call: inactive; negative
Test System: AMES SALMONELLA TYPHIMURIUM, Strain/Indicator: TA1535, Metabolic Activation: RAT, LIVER, S-9, AROCLOR 1254 (10 OR 30%), Method: PREINCUBATION
  mutagenic call: inactive; negative
Test System: AMES SALMONELLA TYPHIMURIUM, Strain/Indicator: TA1535, Metabolic Activation: RAT, LIVER, S-9, PYRAZOLE, Method: PREINCUBATION
  mutagenic call: inactive; negative
Test System: AMES SALMONELLA TYPHIMURIUM, Strain/Indicator: TA1537, Metabolic Activation: HAMSTER, LIVER, S-9, AROCLOR 1254 (10 OR 30%), Method: PREINCUBATION
  mutagenic call: inactive; negative
Test System: AMES SALMONELLA TYPHIMURIUM, Strain/Indicator: TA1537, Metabolic Activation: NONE, Method: PREINCUBATION
  mutagenic call: inactive; negative
Test System: AMES SALMONELLA TYPHIMURIUM, Strain/Indicator: TA1537, Metabolic Activation: RAT, LIVER, S-9, AROCLOR 1254 (10 OR 30%), Method: PREINCUBATION
  mutagenic call: inactive; negative
Test System: CHINESE HAMSTER OVARY, Strain/Indicator: CHO-K1-BH4 (HGPRT), Metabolic Activation: RAT, LIVER, S-9, AROCLOR, Method: SUSPENSION/PLATE
  mutagenic call: active; positive
Test System: CHINESE HAMSTER V-79, Strain/Indicator: V-79/6-THIOGUANINE, Metabolic Activation: NONE, Method: CELL-MEDIATED
  mutagenic call: active; positive
Test System: CHINESE HAMSTER V-79, Strain/Indicator: V-79/6-THIOGUANINE, Metabolic Activation: RAT, LIVER, HEPATOCYTES, AROCLOR 1254, Method: CELL-MEDIATED
  mutagenic call: active; positive
Test System: CHINESE HAMSTER V-79, Strain/Indicator: V-79/6-THIOGUANINE, Metabolic Activation: RAT, LIVER, HEPATOCYTES, Method: CELL-MEDIATED
  mutagenic call: active; positive
Test System: CHINESE HAMSTER V-79, Strain/Indicator: V-79/6-THIOGUANINE, Metabolic Activation: RAT, LIVER, S-9, AROCLOR 1254, Method: CELL-MEDIATED
  mutagenic call: active; positive
Test System: CHINESE HAMSTER V-79, Strain/Indicator: V-79/6-THIOGUANINE, Metabolic Activation: RAT, LIVER, S-9, Method: CELL-MEDIATED
  mutagenic call: active; positive
Test System: E. COLI, Strain/Indicator: WP2 (HCR), Metabolic Activation: NONE, Method: STANDARD PLATE
  mutagenic call: inactive; negative
Test System: E. COLI, Strain/Indicator: WP2 (HCR), Metabolic Activation: S-9, Method: STANDARD PLATE
  mutagenic call: inactive; negative
Test System: E. COLI, Strain/Indicator: WP2 (PKM101), Metabolic Activation: RAT, LIVER, S-9, PYRAZOLE, Method: PREINCUBATION
  mutagenic call: inactive; negative
Test System: E. COLI, Strain/Indicator: WP2 UVRA (PKM101), Metabolic Activation: RAT, LIVER, S-9, PYRAZOLE, Method: PREINCUBATION
  mutagenic call: inactive; negative
Test System: E. COLI, Strain/Indicator: WP2 UVRA, Metabolic Activation: HAMSTER, LIVER, S-9, AROCLOR 1254, Method: STANDARD PLATE
  mutagenic call: inactive; negative
Test System: E. COLI, Strain/Indicator: WP2 UVRA, Metabolic Activation: HAMSTER, LIVER, S-9, Method: STANDARD PLATE
  mutagenic call: inactive; negative
Test System: E. COLI, Strain/Indicator: WP2 UVRA, Metabolic Activation: MOUSE, LIVER, S-9, AROCLOR 1254, Method: STANDARD PLATE
  mutagenic call: inactive; negative
Test System: E. COLI, Strain/Indicator: WP2 UVRA, Metabolic Activation: MOUSE, LIVER, S-9, Method: STANDARD PLATE
  mutagenic call: inactive; negative
Test System: E. COLI, Strain/Indicator: WP2 UVRA, Metabolic Activation: NONE, Method: STANDARD PLATE
  mutagenic call: inactive; negative
Test System: E. COLI, Strain/Indicator: WP2 UVRA, Metabolic Activation: RAT, LIVER, S-9, AROCLOR 1254, Method: STANDARD PLATE
  mutagenic call: inactive; negative
Test System: E. COLI, Strain/Indicator: WP2 UVRA, Metabolic Activation: RAT, LIVER, S-9, Method: STANDARD PLATE
  mutagenic call: inactive; negative
Test System: MOUSE LYMPHOMA, Strain/Indicator: L5178Y (HGPRT), Metabolic Activation: NONE, Method: SUSPENSION/PLATE
  mutagenic call: active; positive
Test System: MOUSE LYMPHOMA, Strain/Indicator: L5178Y (TK+/TK-), Metabolic Activation: NONE, Method: MICROWELL
  mutagenic call: active; positive
Test System: MOUSE LYMPHOMA, Strain/Indicator: L5178Y (TK+/TK-), Metabolic Activation: NONE, Method: MINIWELL
  mutagenic call: active; positive
Test System: MOUSE LYMPHOMA, Strain/Indicator: L5178Y (TK+/TK-), Metabolic Activation: RAT, LIVER, S-9, AROCLOR 1242 AND 1254 (2:1), Method: SUSPENSION/PLATE
  mutagenic call: active; positive
Test System: MOUSE LYMPHOMA, Strain/Indicator: L5178Y (TK+/TK-), Metabolic Activation: RAT, LIVER, S-9, AROCLOR 1254, Method: SUSPENSION/PLATE
  mutagenic call: active; positive

## O=[N+]([O-])c1ccc2c(c1)CC=C2
[1]
  mutagenic call: active; positive

## CC12CCC(CC1=O)C2(C)C (stereo not given) (tested in a mixture with another compound)
End Point: IN VITRO CHROMOSOMAL ABERRATIONS, Test System: SYRIAN HAMSTER EMBRYO (SHE) CELLS, Metabolic Activation: NONE
  mutagenic call: active; positive (structural changes)
End Point: In vitro chromosomal aberrations, Test System: D824 human dental pulp cells, Metabolic Activation: Rat, Liver, Postmitochondrial supernate (5%)
  mutagenic call: inactive; negative
